Laboratory results reported in ChEMBL document CHEMBL4765299 (Eur J Med Chem, 2020).
pIC50: −log10 of the molar value. Calls of active or inactive are those of the source. The calls are words filed in the database; no cut-off is given here.

What was measured:
[1] = against A against n against t against i against p against r against o against l against i against f against e against r against a against t against i against v against e against a against c against t against i against v against i against t against y against a against g against a against i against n against s against t against h against u against m against a against n against K against 5 against 6 against 2 against c against e against l against l against s against a against s against s against e against s against s against e against d against a against s against r against e against d against u against c against t against i against o against n against i against n against c against e against l against l against v against i against a against b against i against l against i against t against y against m against e against a against s against u against r against e against d against a against f against t against e against r against 7 against 2 against h against r against s against b against y against M against T against T against a against s against s against a against y against; assay type: functional, tissue-based, Homo sapiens; conditions: k562
[2] = against A against n against t against i against p against r against o against l against i against f against e against r against a against t against i against v against e against a against c against t against i against v against i against t against y against a against g against a against i against n against s against t against h against u against m against a against n against M against D against A against - against M against B against - against 2 against 3 against 1 against c against e against l against l against s against a against s against s against e against s against s against e against d against a against s against r against e against d against u against c against t against i against o against n against i against n against c against e against l against l against v against i against a against b against i against l against i against t against y against m against e against a against s against u against r against e against d against a against f against t against e against r against 7 against 2 against h against r against s against b against y against M against T against T against a against s against s against a against y against; assay type: functional, tissue-based, Homo sapiens; conditions: mda-mb-231
Sus scrofa = species: Sus scrofa; test: Displacement of [3H]colchicine from porcine brain tubulin at 1 uM incubated for 2 hrs by TopCount scintillation counting method relative to control; assay type: tissue-based
K562 [3] = test: Induction of mitochondrial membrane potential depolarization in human K562 cells assessed proportion of cells with collapsed MMP at 5 nM measured after 48 hrs by JC-1 staining based flow cytometry (reference value: 1.57%); assay type: functional
K562 [4] = test: Induction of apoptosis in human K562 cells assessed as early apoptotic cells at 5 nM incubated for 48 hrs by AnnexinV-FITC/propidium iodide staining based flow cytometry analysis (reference value: 1.47%); assay type: functional
K562 [5] = test: Induction of apoptosis in human K562 cells assessed as early apoptotic cells at 10 nM incubated for 48 hrs by AnnexinV-FITC/propidium iodide staining based flow cytometry analysis (reference value: 1.47%); assay type: functional
K562 [6] = test: Induction of apoptosis in human K562 cells assessed as late apoptotic cells at 10 nM incubated for 48 hrs by AnnexinV-FITC/propidium iodide staining based flow cytometry analysis (reference value: 1.78%); assay type: functional
K562 [7] = test: Induction of apoptosis in human K562 cells assessed as early apoptotic cells at 20 nM incubated for 48 hrs by AnnexinV-FITC/propidium iodide staining based flow cytometry analysis (reference value: 1.47%); assay type: functional
K562 [8] = test: Induction of apoptosis in human K562 cells incubated for 48 hrs by AnnexinV-FITC/propidium iodide staining based flow cytometry; assay type: functional, cell-based; conditions: dose 5-20 nM
HUVEC [9] = test: Inhibition of cell migration in HUVEC assessed as wound closure at 5 nM after 24 hrs by scratch wound healing assay (reference value: 76.3%); assay type: functional, Homo sapiens; set-up: scale not given: the % may be the effect or the level left
HUVEC [10] = test: Inhibition of cell migration in HUVEC assessed as wound closure at 10 nM after 24 hrs by scratch wound healing assay (reference value: 76.3%); assay type: functional, Homo sapiens; set-up: scale not given: the % may be the effect or the level left
HUVEC [11] = test: Inhibition of cell migration in HUVEC assessed as wound closure at 20 nM after 24 hrs by scratch wound healing assay (reference value: 76.3%); assay type: functional, Homo sapiens; set-up: scale not given: the % may be the effect or the level left
HUVEC [12] = test: Anti-angiogenesis activity in HUVEC assessed as inhibition of capillary-like tube formation at 5 nM incubated for 6 hrs by Matrigel-based optical microscopy; assay type: functional, cell-based; conditions: Homo sapiens
H22 [13] = test: Anti-tumor activity against mouse H22 cells allografted in ICR mice assessed as reduction in tumor weight at 15 mg/kg, iv administered daily for 21 days; assay type: functional; conditions: 504 h, time 21 day
[14] = Toxicity in ICR mouse allografted with mouse H22 cells assessed as body weight loss at 30 mg/kg, iv administered daily for 21 days; assay type: organism-based; conditions: in vivo, 504 h, dose 30 mg/kg/day, time 21 day
[15] = Toxicity in ICR mouse allografted with mouse H22 cells assessed as heart morphological changes at 30 mg/kg, iv administered daily for 21 days by hematoxylin and eosin staining based microscopic analysis; assay type: organism-based; conditions: in vivo, 504 h, dose 30 mg/kg/day, time 21 day
K562 [16] = test: Induction of cell cycle arrest in human K562 cells assessed as accumulation at G1 phase at 5 nM incubated for 48 hrs by propidium iodide/RNase staining based flow cytometry (reference value: 38.83%); assay type: functional
K562 [17] = test: Induction of cell cycle arrest in human K562 cells assessed as accumulation at G1 phase at 10 nM incubated for 48 hrs by propidium iodide/RNase staining based flow cytometry (reference value: 38.83%); assay type: functional
K562 [18] = test: Induction of cell cycle arrest in human K562 cells assessed as accumulation at S phase at 10 nM incubated for 48 hrs by propidium iodide/RNase staining based flow cytometry (reference value: 53.48%); assay type: functional
K562 [19] = test: Induction of cell cycle arrest in human K562 cells assessed as accumulation at G2/M phase at 10 nM incubated for 48 hrs by propidium iodide/RNase staining based flow cytometry (reference value: 7.7%); assay type: functional
K562 [20] = test: Induction of cell cycle arrest in human K562 cells assessed as accumulation at G1 phase at 20 nM incubated for 48 hrs by propidium iodide/RNase staining based flow cytometry (reference value: 38.83%); assay type: functional
K562 [21] = test: Induction of cell cycle arrest in human K562 cells assessed as accumulation at S phase at 20 nM incubated for 48 hrs by propidium iodide/RNase staining based flow cytometry (reference value: 53.48%); assay type: functional
K562 [22] = test: Induction of cell cycle arrest in human K562 cells assessed as increase in accumulation at G2/M phase incubated for 48 hrs by propidium iodide/RNase staining based flow cytometry; assay type: functional; conditions: dose 5-20 nM
K562 [23] = test: Induction of mitochondrial membrane potential depolarization in human K562 cells assessed proportion of cells with intact MMP at 10 nM measured after 48 hrs by JC-1 staining based flow cytometry (reference value: 98.12%); assay type: functional
K562 [24] = test: Induction of mitochondrial membrane potential depolarization in human K562 cells assessed proportion of cells with collapsed MMP at 20 nM measured after 48 hrs by JC-1 staining based flow cytometry (reference value: 1.57%); assay type: functional
K562 [25] = test: Induction of mitochondrial membrane potential depolarization in human K562 cells assessed proportion of cells with intact MMP at 20 nM measured after 48 hrs by JC-1 staining based flow cytometry (reference value: 98.12%); assay type: functional
HUVEC [26] = test: Inhibition of cell migration in HUVEC assessed as decrease in wound closure after 24 hrs by scratch wound healing assay; assay type: functional, cell-based; conditions: Homo sapiens, dose 5-20 nM
H22 [27] = test: Anti-tumor activity against mouse H22 cells allografted in iv dosed ICR mice assessed as reduction in tumor weight administered daily for 21 days; assay type: functional, organism-based; conditions: dose 15-30 mg/kg/day, time 21.0 day
[28] = Toxicity in ICR mouse allografted with mouse H22 cells assessed as liver morphological changes at 30 mg/kg, iv administered daily for 21 days by hematoxylin and eosin staining based microscopic analysis; assay type: organism-based; conditions: in vivo, 504 h, dose 30 mg/kg/day, time 21 day
[29] = Toxicity in ICR mouse allografted with mouse H22 cells assessed as spleen morphological changes at 30 mg/kg, iv administered daily for 21 days by hematoxylin and eosin staining based microscopic analysis; assay type: organism-based; conditions: in vivo, 504 h, dose 30 mg/kg/day, time 21 day
[30] = Toxicity in ICR mouse allografted with mouse H22 cells assessed as kidney morphological changes at 30 mg/kg, iv administered daily for 21 days by hematoxylin and eosin staining based microscopic analysis; assay type: organism-based; conditions: in vivo, 504 h, dose 30 mg/kg/day, time 21 day

pIC50 [1]: 8.00
pIC50 [2]: 7.70
inhibition (Sus scrofa): 66.5%
Compound: C=C(c1cc(Cl)nc(NC)c1)c1ccc(OC)c(O)c1
Activity (K562 [3]): 13.44%
Activity (K562 [4]): 6.6%
Activity (K562 [5]): 37.25%
Activity (K562 [6]): 11.3%
Activity (K562 [7]): 43.83%
Activity (K562 [8]): Dose-dependent effect
Activity (HUVEC [9]): 67.6%
Activity (HUVEC [10]): 55.3%
Activity (HUVEC [11]): 49.2%
Activity (HUVEC [12]): Active
inhibition in vivo at 15 mg/kg/day (H22 [13]): 58.7%
Activity [14]: Non-Toxic
Activity [15]: Non-Toxic
Activity (K562 [16]): 39.94%
Activity (K562 [17]): 38.45%
Activity (K562 [18]): 50.01%
Activity (K562 [19]): 11.54%
Activity (K562 [20]): 36.65%
Activity (K562 [21]): 48.07%
Activity (K562 [22]): Dose-dependent effect
Activity (K562 [23]): 79.83%
Activity (K562 [24]): 38.84%
Activity (K562 [25]): 61.55%
inhibition (HUVEC [26]): Dose-dependent effect
Activity (H22 [27]): Dose-dependent effect
Activity [28]: Non-Toxic
Activity [29]: Non-Toxic
Activity [30]: Non-Toxic
